Experimental data published in US8263649B2, “Benzofuran type derivatives, a composition comprising the same for treating or preventing cognitive dysfunction and the use thereof” (Medifron DBT Co., Ltd., priority 2006, dated 2012).

Assays:
[1] = system: ICR mouse administrated aggregated beta amyloid 1-42; experiment: AD acute model experiment - passive avoidance test; format: in vivo
Protocol: For passive avoidance test, male ICR mouse weighing 25 g purchased from Samtaco Co. was bred with five mice per cage and the cage was kept with following condition maintaining the temperature of 22±2° C. and the relative humidity of […] under the regularly controlled light/dark condition with an interval of 12 hours.
Synthetic beta amyloid 1-42 (BACHEM) was dissolved in DMSO in order to be 250 μm solution and diluted with PBS to […] and aggregated at 37° C. for four days (Passive Avoidance test) or six days (Y maze test).
Aggregated beta amyloid 1-42 was administrated into the mice according to the procedure disclosed in the literature (Lausen & Belknap, J. Pharmacol. Methods, 16 pp 355-357, 1986).
[…] beta amyloid 1-42 was administrated into the 2.4 mm depth of bregma region with 50 μl of Hamilton micro-syringe equipped with 26-gauge needle. The behavior tests were divided into Y maze test and PA (passive avoidance) test after the beta amyloid administration. […]
During the first acquisition trial, each mouse was placed in the lighted compartment; as soon as they entered the dark compartment, the door was closed, and they received an electric shock through the grid floor (0.6 Ma, 3 s). […] 24 hours after the training trial, the mice were again placed in the lighted compartment and the time until they re-entered the dark compartment was measured (step-through latency). […]

[2] = biological target: T1, aggregated beta amyloid Ab(1-42) (Homo sapiens, UniProt P05067); experiment: Inhibition test of beta amyloid aggregation lysis (Thioflavin T fluorescence); format: biochemical; details: FIG. 1
T1 construct: Synthetic beta amyloid, Ab(1-42) [Bachem Cat. No. H1368; H-Asp-Ala-Glu- Phe-Arg-His-Asp-Ser-Gly-Tyr; purchased Bachem H1368; host or cells: synthetic peptide
T1 sequence (P05067 672-713): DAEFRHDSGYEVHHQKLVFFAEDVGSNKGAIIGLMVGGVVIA
Protocol: Synthetic beta amyloid, Ab(1-42) [Bachem Cat. No. H1368; H-Asp-Ala-Glu- Phe-Arg-His-Asp-Ser-Gly-Tyr-Glu-Val-His-His-Gln-Lys-Leu-Val-Phe-Phe-Ala-Glu- Asp-Val-Gly-Ser-Asn-Lys-Gly-Ala-Ile-Ile-Gly-Leu-Met-Val-Gly-Gly-Val-Val-Ile- Ala-OH]) was dissolved in DMSO in order that it induces aggregation at the concentration of 25 microM for 1 week. The test group added with aggregated betaamyloid and test samples inhibiting the inhibition of aggregation and a control group added with only A were reacted together at room temperature for 1 hour on fluorescent black plate. ThT (Thioflavin T) was diluted with 50 mM glycine buffer solution to be […] and the diluted solutions were added to each well by 150 μl/well. The fluorescence intensity of each group was determined by microplate reader (SAFIRE, TECAN) at 450 nm excitation wavelength/480 nm emission wavelength after shaking together for 10 seconds.

A 40 = experiment: ELISA of beta-amyloid in brain of transgenic mice (A 40); format: in vivo, mouse; details: APPswe mice treated for 4 months; no significance statistically; FIG. 13
Protocol: 13 months old dementia model male mice expressing APPswe was used in the experiment and the mice was divided into two groups, i.e., control group consisting of 2 mice and test groups consisting of 4 mice. Each mouse had been fed with the feed mixed with 3 mg of compound IIb everyday for 4 months.
At the end of behavior test, the brain of mouse was delivered and the left hemisphere was frozen to be used as a cryo-section material. The remaining right hemisphere was used to measure the formation of beta-amyloid according to the procedure disclosed in the literature (J. Neurosci, 21(12), pp 4183-4187, 2001). […]
The amount of beta-amyloid in the brains of mice was determined by […] ELISA method according to the manual provided from Biosource Co and ELISA kit (KHB 3482, Biosource Co.) was used in the experiment. […] The level of color reaction was determined at 450 nm using by spectrophotometer and the absolute amount of beta-amyloid in the samples was transformed by comparing with standard value. The brain of the mice treated with the compound 18b for 4 months was delivered and the amount of beta-amyloid in supernatant obtained from the dissolved brain tissue was determined according to ELISA method.

In the case of `COCCCc1ccc2oc(-c3ccc(OC)c(OC)c3)cc2c1` [Compound 18b, 2-(3,4-dimethoxy-phenyl)-5-(3-methoxy-propyl)-benzofuran], the “recovering effect on memory learning damaged by beta-amyloid (passive avoidance, step-through latency)” value ([1]; mice, oral, three days, FIG. 4) is reported as “potent recovering effect”, the “effect on the memory learning capacity (passive avoidance), best dose group” value ([1]; treatment group with more than 100 mg/kg, FIG. 5) is reported as “most excellent effect” and the “solubilizing activity of beta-amyloid” value [2] is reported as “potent solubilizing activity”. The “amount of A 40 in brain (ELISA)” value (A 40) was “slightly reduced”.
